Data reported in ChEMBL document CHEMBL4177615 (Bioorg Med Chem, 2017).

Key:
Plasmodium falciparum [1] = test: Antimalarial activity against Plasmodium falciparum 3D7 infected in ARh+ human erythrocytes at 1 uM after 42 to 48 hrs by Picogreen staining-based 96 well microplate assay; format: functional; settings: read-out: GI
Plasmodium falciparum [2] = test: Antimalarial activity against Plasmodium falciparum 3D7 infected in ARh+ human erythrocytes at 0.1 uM after 42 to 48 hrs by Picogreen staining-based 96 well microplate assay; format: functional; settings: read-out: GI
Plasmodium falciparum [3] = test: Antimalarial activity against Plasmodium falciparum 3D7 infected in ARh+ human erythrocytes at 0.01 uM after 42 to 48 hrs by Picogreen staining-based 96 well microplate assay; format: functional; settings: read-out: GI
Plasmodium falciparum [4] = test: Antimalarial activity against Plasmodium falciparum 3D7 infected in ARh+ human erythrocytes after 42 to 48 hrs by Picogreen staining-based 96 well microplate assay; format: functional, organism-based
Plasmodium falciparum [5] = test: Antimalarial activity against Plasmodium falciparum 3D7 infected in ARh+ human erythrocytes at 10 uM after 42 to 48 hrs by Picogreen staining-based 96 well microplate assay; format: functional; settings: read-out: GI

Compound	inhibition of growth at 1 µM (Plasmodium falciparum [1]) [%]	inhibition of growth at 0.1 µM (Plasmodium falciparum [2]) [%]	inhibition of growth at 0.01 µM (Plasmodium falciparum [3]) [%]	IC50 (Plasmodium falciparum [4]) [nM]	inhibition of growth at 10 µM (Plasmodium falciparum [5]) [%]
O=C(c1ccc(Cl)cc1)N1CCC(Nc2nc3ccccc3n2Cc2ccc(F)cc2)CC1	5	3	4	> 10000	36
COc1ccc(NC(=O)N2CCC(Nc3nc4ccccc4n3Cc3ccc(F)cc3)CC2)c(OC)c1	5	1	0	8140	57
Fc1ccc(Cn2c(NC3CCN(Cc4ccccc4)CC3)nc3ccccc32)cc1	29	2	2	1900	94
O=S(=O)(c1ccc(Cl)cc1)N1CCC(Nc2nc3ccccc3n2Cc2ccc(F)cc2)CC1	6	1	4	3960	83
O=C(NCCc1ccccc1)N1CCC(Nc2nc3ccccc3n2Cc2ccc(F)cc2)CC1	15	1	8	> 10000	49
O=C(Nc1ccc2c(c1)CCC2)N1CCC(Nc2nc3ccccc3n2Cc2ccc(F)cc2)CC1	5	2	1	6280	66
Fc1ccc(Cn2c(NC3CCN(CCCc4ccccc4)CC3)nc3ccccc32)cc1	78	37	2	196	100
O=C(NCc1ccccc1)N1CCC(Nc2nc3ccccc3n2Cc2ccc(F)cc2)CC1	4	0	0	> 10000	25
COc1ccc(CCN2CCN(Cc3nc4ccccc4n3Cc3ccc(F)cc3)CC2)cc1	12	0	3	4640	72
Fc1ccc(Cn2c(NC3CCNCC3)nc3ccccc32)cc1 [TECASTEMIZOLE]	17	0	5	2300	100
Fc1ccc(Cn2c(NC3CCN(CC4CC4)CC3)nc3ccccc32)cc1	21	0	0	2240	98
CC(C)CN1CCC(Nc2nc3ccccc3n2Cc2ccc(F)cc2)CC1	60	0	0	829	90
CN1CCC(Nc2nc3ccccc3n2Cc2ccc(F)cc2)CC1	2	0	0	3090	100
CC(C)(C)NC(=O)N1CCC(Nc2nc3ccccc3n2Cc2ccc(F)cc2)CC1	6	2	0	> 10000	43
Fc1ccc(Cn2c(NC3CCN(CC4CCCCC4)CC3)nc3ccccc32)cc1	48	14	0	857	100
CCCCCCn1c(NC2CCN(CCc3ccc(OC)cc3)CC2)nc2ccccc21	100	95	6	29 to 30	100
Fc1ccc(Cn2c(NC3CCN(CCc4ccccc4)CC3)nc3ccccc32)cc1	90	43	9	125	100
CCC(CC)Cn1c(NC2CCN(CCc3ccc(OC)cc3)CC2)nc2ccccc21	100	16	0	240	95
COCn1c(NC2CCN(CCc3ccc(OC)cc3)CC2)nc2ccccc21	5	0	0	6740	64
CC(C)S(=O)(=O)N1CCC(Nc2nc3ccccc3n2Cc2ccc(F)cc2)CC1	1	3	2	> 10000	11
Fc1ccc(Cn2c(NC3CCN(C/C=C/c4ccccc4)CC3)nc3ccccc32)cc1	55	12	1	718	100
O=C(c1ccccc1)N1CCC(Nc2nc3ccccc3n2Cc2ccc(F)cc2)CC1	8	0	5	> 10000	18
COc1ccc(CCN2CCC(Nc3nc4ccccc4n3Cc3ccc(Br)cc3)CC2)cc1	100	47	0	111	97
COc1ccc(CCN2CCC(Nc3nc4ccccc4n3Cc3ccc(F)cc3)CC2)cc1 [ASTEMIZOLE]	91	37	0	162 to 171	99
O=C(N1CCOCC1)N1CCC(Nc2nc3ccccc3n2Cc2ccc(F)cc2)CC1	0	0	0	> 10000	26
O=C(Nc1ccccc1)N1CCC(Nc2nc3ccccc3n2Cc2ccc(F)cc2)CC1	7	3	0	> 10000	35
O=C(Nc1ccc(F)cc1F)N1CCC(Nc2nc3ccccc3n2Cc2ccc(F)cc2)CC1	4	0	2	> 10000	39
CCCn1c(NC2CCN(CCc3ccc(OC)cc3)CC2)nc2ccccc21	82	3	0	416	100
Cc1ccc(S(=O)(=O)N2CCC(Nc3nc4ccccc4n3Cc3ccc(F)cc3)CC2)cc1	10	7	8	8290	55
O=C(c1ccc(C(F)(F)F)cc1)N1CCC(Nc2nc3ccccc3n2Cc2ccc(F)cc2)CC1	6	0	3	6180	66
